In ChEMBL document CHEMBL1154544, “Antitumour polyether macrolides: four new halichondrins from the New Zealand deep-water marine sponge Lissodendoryx sp” (Bioorg Med Chem, 2009):
In brackets after ≈: the same amount, converted by molar mass.

Tested on: P388
Test: Cytotoxicity against mouse P388 cells
Assay type: functional, cell-based

Row | Structure (SMILES) | IC50 [ng/mL]
1 | C=C1C[C@@H]2CC[C@@]34C[C@H]5O[C@H]6[C@@H](O3)[C@H]3O[C@H](CC[C@@H]3O[C@H]6[C@H]5O4)CC(=O)O[C@@H]3[C@@H](C)[C@@H]4O[C@@H]5C[C@]6(C[C@@H]7O[C@]8(C[C@H](C)[C@@H]9O[C@@H]%10CC(=O)O[C@@H]%10C[C@@H]9O8)C[C@H](C)[C@@H]7O6)O[C@@H]5C[C@@H]4O[C@H]3C[C@H]3O[C@@H](CC[C@@H]1O2)C[C@@H](C)C3=C | 1.1 (≈ 1.02 nM)
2 | C=C1C[C@@H]2CC[C@@]34C[C@H]5O[C@H]6[C@@H](O3)[C@H]3O[C@H](CC[C@@H]3O[C@H]6[C@H]5O4)CC(=O)O[C@@H]3[C@@H](C)[C@@H]4O[C@@H]5C[C@]6(C[C@@H]7O[C@]8(C[C@H](C)[C@@H]9OC(=O)C[C@@H]9O8)C[C@H](C)[C@@H]7O6)O[C@@H]5C[C@@H]4O[C@H]3C[C@H]3O[C@@H](CC[C@@H]1O2)C[C@@H](C)C3=C | 1.1 (≈ 1.08 nM)
3 | C=C1C[C@@H]2CC[C@@]34C[C@H]5O[C@H]6[C@@H](O3)[C@H]3O[C@H](CC[C@@H]3O[C@H]6[C@H]5O4)CC(=O)O[C@@H]3[C@@H](C)[C@@H]4O[C@@H]5C[C@]6(C[C@@H]7O[C@]8(C[C@H](C)[C@@H]9O[C@@H]%10CC(C(O)CCl)O[C@@H]%10C[C@@H]9O8)C[C@H](C)[C@@H]7O6)O[C@@H]5C[C@@H]4O[C@H]3C[C@H]3O[C@@H](CC[C@@H]1O2)C[C@@H](C)C3=C (some centres not stated) | 2 (≈ 1.75 nM)
4 | C=C1C[C@@H]2CC[C@@]34C[C@H]5O[C@H]6[C@@H](O3)[C@H]3O[C@H](CC[C@@H]3O[C@H]6[C@H]5O4)CC(=O)O[C@@H]3[C@@H](C)[C@@H]4O[C@@H]5C[C@]6(C[C@@H]7O[C@]8(C[C@H](C)[C@@H]9O[C@H](CC(C)=O)[C@H](O)C[C@@H]9O8)C[C@H](C)[C@@H]7O6)O[C@@H]5C[C@@H]4O[C@H]3C[C@H]3O[C@@H](CC[C@@H]1O2)C[C@@H](C)C3=C | 0.76 (≈ 0.695 nM)
5 | C=C1C[C@@H]2CC[C@@]34C[C@H]5O[C@H]6[C@@H](O3)[C@H]3O[C@H](CC[C@@H]3O[C@H]6[C@H]5O4)CC(=O)O[C@@H]3[C@@H](C)[C@@H]4O[C@@H]5C[C@]6(C[C@@H]7O[C@]8(C[C@H](C)[C@@H]9O[C@H]([C@@H](O)C[C@@H](O)CO)C[C@@H]9O8)C[C@H](C)[C@@H]7O6)O[C@@H]5C[C@@H]4O[C@H]3C[C@H]3O[C@@H](CC[C@@H]1O2)C[C@@H](C)C3=C [HALICHONDRIN B] | 0.78 (≈ 0.702 nM)
6 | C=C1C[C@@H]2CC[C@@]34C[C@H]5O[C@H]6[C@@H](O3)[C@H]3O[C@H](CC[C@@H]3O[C@H]6[C@H]5O4)CC(=O)O[C@@H]3[C@@H](C)[C@@H]4O[C@@H]5C[C@]6(C[C@@H]7O[C@]8(C[C@H](C)[C@@H]9O[C@@H]%10CC(C(O)CO)O[C@@H]%10C[C@@H]9O8)C[C@H](C)[C@@H]7O6)O[C@@H]5C[C@@H]4O[C@H]3C[C@H]3O[C@@H](CC[C@@H]1O2)C[C@@H](C)C3=C (some centres not stated) [HOMOHALICHONDRIN B] | 0.22 (≈ 0.196 nM)
7 | C=C1C[C@@H]2CC[C@@]34C[C@H]5O[C@H]6[C@@H](O3)[C@H]3O[C@H](CC[C@@H]3O[C@H]6[C@H]5O4)CC(=O)O[C@@H]3[C@@H](C)[C@@H]4O[C@@H]5C[C@]6(C[C@@H]7O[C@]8(C[C@H](C)[C@@H]9O[C@H](CC(=O)CCO)[C@H](O)C[C@@H]9O8)C[C@H](C)[C@@H]7O6)O[C@@H]5C[C@@H]4O[C@H]3C[C@H]3O[C@@H](CC[C@@H]1O2)C[C@@H](C)C3=C [ISOHOMOHALICHONDRIN B] | 0.18 (≈ 0.16 nM)
